Data taken from US10413535B2, “Pharmaceutical compositions comprising an integrin ALPHA4 antagonist for use in treating ocular inflammatory conditions” (AXEROVISION, INC., priority 2015, dated 2019).

Legend:
[1] = tested on: cells of draining cervical lymph nodes; assay: Flow cytometry of draining cervical lymph nodes, desiccating stress 1 day; assay type: in vivo, mouse; conditions: 1 day DS
Description: (§1) Female C57BL/6 mice, aged 6 to 8 weeks, were subjected to DS for 5 days (DS5) as described previously (de Paiva et al., 2006b; Niederkorn et al., 2006). Topical bilateral treatment with 1 eye drop per eye (2 μL volume) or subcutaneous injection (4 μL volume), 2 times per day, was initiated on day 1 concurrently with DS and continued through day 4. Treatment with the compound of formula I or dexamethasone phosphate 0.1% was compared to correspondingly treated vehicle controls. Mice were randomized to receive one of the test articles. Control mice were kept in a non-stressed (NS) environment maintained at 50-75% relative humidity without exposure to airflow or scopolamine and were not treated with test or control article. Treatment effects were assessed on corneal staining with Oregon Green Dextran (OGD); expression of inflammatory markers in ocular surface tissues by real time PCR; cell population analysis in draining cervical lymph nodes by FACS analysis; conjunctival T cell infiltration by immunohistochemistry.
Cervical draining lymph nodes (CLN) were surgically excised, placed in a round culture plate with ˜8 mL of complete RPMI media and smashed between two frosted slides.
Single-cell suspensions of CLN from C57BL/6 mice, treated under DS conditions for 1 day, were prepared, centrifuged and sequentially filtered, as previously described (de Paiva et al., 2009a). Subsequently 1.0 mL of ACT solution was added for 30 seconds followed by 2.0 mL of complete RPMI. The cells were once again centrifuged and the supernatant aspirated. Cells were then re-suspended in 2.0 mL of complete RPMI and prepared for counting. Ten μL of Trypan Blue were used for counting and the cells were divided in tubes at 1×10^6 cells/mL. Subsequently, the cells were incubated on ice in 20 μL unconjugated anti-mouse CD16/CD32 (BD Pharmingen, San Diego, Calif.) followed by 80 μL of directly conjugated primary antibody or isotype. Finally the samples were washed with 1 mL PBS/1% FBS, centrifuged and re-suspend in 0.3 mL PBS/1% FBS containing 1:1000 of PI. The samples were stored at 4° C. until the analysis was performed with an A BD LSRII Benchtop cytometer. The data was analysed using BD Diva Software (BD Pharmingen) and FlowJo (TreeStar Inc).
Due to skewed distribution of OGD data, the analysis was done on the log 10 scale to make the data more normally distributed. Log 10 OGD data was averaged across two observers and the left and right eyes. The mixed effects ANOVA model included treatment group as a fixed effect and week as a random effect. 95% and 99% confidence intervals were constructed for the disease (5 day DS vs untreated group kept in separate vivarium) and compound treatment effects (treatment vs vehicle). As these comparisons were all pre-planned (comparing each treatment to its vehicle group), no adjustment was made for multiplicity. Log 10 scale treatment effect estimates and confidence limits were converted back to the original OGD scale, thus representing the estimate for the ratio of group geometric means and their confidence limits. For gene expression analysis, an unpaired T test was performed to compare drug and vehicle treatment. For flow cytometry analysis, a 2-way ANOVA with fixed treatment and random experiment effects was employed to test the treatment differences. The analysis was followed by Dunnett's multiple comparison procedure to compare each of the treatment groups with the vehicle group. T cell density was calculated for each section and averaged across sections for each animal. As the distribution of average cell density data was non-normal, it was analyzed by using non-parametric methods (Kruskal-Wallis procedure, followed by Dunn's multiple comparisons technique).
The draining CLN are an integral part of the immune cycle in DED (Pflugfelder et al., 2008; Schaumburg et al., 2011). […]

[2] = tested on: C57BL/6 mice subjected to desiccating stress; assay: Corneal OGD staining in murine desiccating stress model; assay type: in vivo, mouse; conditions: topical bilateral 2 times per day, 5 days DS, vs vehicle (GW559090 1-30 mg/mL; Dex 0.1%)
Description: as §1
On the morning of the 5th day, mice received one s.c. dose of scopolamine. Two hours later corneal staining was assessed using Oregon Green Dextran (OGD-488), which is a conjugated fluorescent dye of a 70 kDa molecular size (Invitrogen-Molecular Probes) as previously described (de Paiva et al., 2006b). The procedure consisted of instillation of 0.5 μL of OGD on the cornea using a glass capillary pipette, 1 minute before euthanasia. Mice were euthanized by inhalation of isoflurane gas followed by cervical dislocation. Eyes were then rinsed with 2 mL of BSS. Excess liquid was carefully blotted from the ocular surface with filter papers without touching the cornea. Digital pictures of both eyes were taken under 470 nm excitation and 488 nm emission wave lengths using a Nikon SMZ-1500 stereo microscope, with an exposure time of 2 seconds. Both eyes from each animal were evaluated; the right eye always first followed by the left eye. The mean intensity in the central cornea was evaluated from digital images using NIS Elements (version 3.0) by placing a fixed region of interest (a 2-mm diameter circle) on the central cornea. The mean intensity of the fluorescence was read by the software and stored in a database (Excel, Microsoft). This fluorescence measurement in the central ring was done independently by 2 masked observers, for each mouse eye. By the conclusion of the experiment, results were averaged from both observers using all data collected during all study weeks (Excel, Microsoft). Results are presented as geometric mean±95% confidence interval of gray levels.
Due to skewed distribution of OGD data, the analysis was done on the log 10 scale to make the data more normally distributed. Log 10 OGD data was averaged across two observers and the left and right eyes. The mixed effects ANOVA model included treatment group as a fixed effect and week as a random effect. 95% and 99% confidence intervals were constructed for the disease (5 day DS vs untreated group kept in separate vivarium) and compound treatment effects (treatment vs vehicle). As these comparisons were all pre-planned (comparing each treatment to its vehicle group), no adjustment was made for multiplicity. […] T cell density was calculated for each section and averaged across sections for each animal. […]

[3] = tested on: dry eye patients; conditions: delivered topically; cited from earlier work
[4] = tested on: multiple sclerosis and Crohn's disease; conditions: in vivo; cited from earlier work
[5] = topical treatment, vs vehicle (GW559090 30 mg/mL, 60 μg per eye; Dex 0.1%), listed as dexamethasone

Molecule: C[C@@H]1C[C@H]2[C@@H]3CCC4=CC(=O)C=C[C@]4(C)[C@@]3(F)[C@@H](O)C[C@]2(C)[C@@]1(O)C(=O)COP(=O)(O)O [Dex, Dexamethasone phosphate, reference compound]
- CD4+ and CD8+ T cells in draining lymph nodes [1]: nor did treatment with the compound of formula I or dexamethasone decrease the number of T cells
- CD11c+ dendritic cells in draining cervical lymph nodes [1, 5]: no significant effect
- CD11c+/MHC II+ dendritic cells in draining cervical lymph nodes [1, 5]: no significant effect
- CD11c+ dendritic cells in draining cervical lymph nodes ([1]; topical treatment, vs vehicle (GW559090 30 mg/mL, 60 μg per eye; Dex 0.1%), listed as dexamethasone phosphate): Neither systemic treatment with the compound of formula I nor topical treatment with dexamethasone phosphate produced the same effect
- OGD intensity score (corneal staining / corneal barrier disruption) [2]: significantly improved
- OGD intensity score (corneal staining / corneal barrier disruption) ([2]; listed as dexamethasone): decreased

Molecule: CS(=O)(=O)c1cccc(C[C@H](NC(=O)c2c(Cl)cc3c(c2Cl)CCN(C(=O)c2ccc4ccoc4c2)C3)C(=O)O)c1 [Lifitegrast, (2S)-2-[[2-(1-benzofuran-6-carbonyl)-5,7-dichloro-3,4-dihydro-1H-isoquinoline-6-carbonyl]amino]-3-(3-methylsulfonylphenyl)propanoic acid]
- Corneal staining [3]: reduce
- Symptoms [3]: improve

Molecule: Natalizumab: an antibody directed against the integrin α4 subunit
- Inflammation and clinical outcomes [4]: profoundly inhibit inflammation and improve clinical outcomes
